Assay results published in PubChem BioAssay (NCI).
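Five compound concentrations were applied to cells in 96-well plates for 48 hours; endpoints were derived by simple linear interpolation of the resulting dose-response curve. GI50: concentration for 50% inhibition of growth. TGI marks complete inhibition of growth.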

Legend:
Assay in all cases: inhibition of tumour cell growth, NCI panel, 48 h
SK-MEL-2 melanoma = test system: SK-MEL-2 melanoma
HOP-62 NSCLC = test system: HOP-62 NSCLC
SF-295 CNS = test system: SF-295 CNS
786-0 renal = test system: 786-0 renal
NCI-H23 lung = test system: NCI-H23 lung
PC-3 prostate = test system: PC-3 prostate
A498 renal = test system: A498 renal
MDA-MB-435 = test system: MDA-MB-435
DMS 114 small cell lung = test system: DMS 114 small cell lung
KM20L2 colon = test system: KM20L2 colon

| Compound | TGI (SK-MEL-2 melanoma) [µM] | TGI (HOP-62 NSCLC) [µM] | TGI (SF-295 CNS) [µM] | TGI (786-0 renal) [µM] | TGI (NCI-H23 lung) [µM] | TGI (PC-3 prostate) [µM] | TGI (A498 renal) [µM] | TGI (MDA-MB-435) [µM] | GI50 (SK-MEL-2 melanoma) [µM] | GI50 (HOP-62 NSCLC) [µM] | GI50 (SF-295 CNS) [µM] | GI50 (786-0 renal) [µM] | GI50 (NCI-H23 lung) [µM] | GI50 (PC-3 prostate) [µM] | GI50 (A498 renal) [µM] | GI50 (MDA-MB-435) [µM] | TGI (DMS 114 small cell lung) [µM] | TGI (KM20L2 colon) [µM] |
| --- | --- | --- | --- | --- | --- | --- | --- | --- | --- | --- | --- | --- | --- | --- | --- | --- | --- | --- |
| COC1C(O)C(C)OC(OC2CC3CCC4C(CCC5(C)C(C6=CC(=O)OC6)CCC45O)C3(O)C(OC(C)=O)C2)C1O (stereo not drawn) | 10.1 | 2.59 | 8.57 | > 100 | 2.61 | 8.77 | 3.5 | 10.5 |  |  |  |  |  |  |  |  |  |  |
| O=S(=O)(O)/C(=C\c1ccccc1)c1ccccc1 (tested in a mixture with another compound) | > 100 | > 100 | > 100 | > 100 | > 100 | > 100 | > 100 | > 100 |  |  |  |  |  |  |  |  |  |  |
| CCOc1ccc2ccc3cccnc3c2n1 | > 100 | 61.4 | > 100 | > 100 | > 100 | > 100 | 76 | > 100 |  |  |  |  |  |  |  |  |  |  |
| CCCCCCC#CC#Cc1cccc(=O)o1 | > 100 | 8.48 | 22.4 | 2.72 | 2.25 | 8.36 | 29.1 | 3.28 | 9.27 | 2.65 | 6.75 | 0.991 | 0.848 | 2.67 | 14.9 | 1.39 |  |  |
| NC(Cc1ccnnc1)C(=O)O (stereo not drawn) | > 100 | > 100 | > 100 | > 100 | > 100 | > 100 | > 100 | > 100 |  |  |  |  |  |  |  |  |  |  |
| CC(O)C(O)C(O)C(/C=N\Nc1ccccc1)=N/Nc1ccccc1 (stereo not drawn) | 21.5 | 30.3 | 25.7 | 29.8 | 24.1 | 49.6 | 22.6 | 26.7 |  |  |  |  |  |  |  |  |  |  |
| O=C(Nc1ccccc1O)c1ccc(CNC(=O)c2sccc2Nc2ccnc(C(F)(F)F)c2)cc1 | 28.5 | 42.7 | 21.8 | 25 | 41.2 | 36.8 | 9.7 | 17.8 | 6.97 | 10.9 | 8.33 | 9.92 | 5.73 | 4.56 | 2.62 | 4.09 |  |  |
| COc1ccc(/C=C(/C)[N+](=O)[O-])cc1 | 10.8 | 3.61 | 19 | 2.51 | 4.35 | 5.04 | 8.28 | 4.16 |  |  |  |  |  |  |  |  |  |  |
| CCc1c(O)c2c(c(O)c1C(C)=O)C(=O)c1c(cc(O)c(C(=O)O)c1C(=O)O)C2=O | > 100 | > 100 | > 100 | > 100 | > 100 | > 100 | > 100 | > 100 |  |  |  |  |  |  |  |  |  |  |
| CC(C)(C)[Si](C)(C)OCC1C=CC(n2cnc3c(N)ncnc32)O1 (stereo not drawn) | > 100 | > 100 | > 100 | > 100 | > 100 | > 100 | > 100 | 57.1 |  |  |  |  |  |  |  |  |  |  |
| CC1(C)CC(=O)C(=[N+]=[N-])C(=O)C1 | > 100 | > 100 | > 100 | > 100 | > 100 |  |  |  |  |  |  |  |  |  |  |  | > 100 | > 100 |
